Test results: patent US6479509B1, “Method of promoting smoking cessation” (priority 2000, dated 2002)
pIC50: −log10 of the molar value. Entries after “also recorded” stand apart in the source; their conditions may differ. Like-named read-outs stand apart in the source and are kept apart here.

Columns and labels:
[1] = tested on: cocaine-induced hyperactivity; assay: Locomotor activity, cocaine-induced hyperactivity; format: in vivo, mice; conditions: doses higher than 1 mg/kg
Procedure: Locomotor Activity. […] Interruptions of the photocell beams (two banks of eight cells each) were then recorded for the next 30 min. Data were expressed as number of photocell interruptions.

[2] = target: T1, Dopamine transporter (Rattus norvegicus, UniProt P23977)
T1 construct: from tissue; host or cells: brain
T1 sequence (P23977 whole entry): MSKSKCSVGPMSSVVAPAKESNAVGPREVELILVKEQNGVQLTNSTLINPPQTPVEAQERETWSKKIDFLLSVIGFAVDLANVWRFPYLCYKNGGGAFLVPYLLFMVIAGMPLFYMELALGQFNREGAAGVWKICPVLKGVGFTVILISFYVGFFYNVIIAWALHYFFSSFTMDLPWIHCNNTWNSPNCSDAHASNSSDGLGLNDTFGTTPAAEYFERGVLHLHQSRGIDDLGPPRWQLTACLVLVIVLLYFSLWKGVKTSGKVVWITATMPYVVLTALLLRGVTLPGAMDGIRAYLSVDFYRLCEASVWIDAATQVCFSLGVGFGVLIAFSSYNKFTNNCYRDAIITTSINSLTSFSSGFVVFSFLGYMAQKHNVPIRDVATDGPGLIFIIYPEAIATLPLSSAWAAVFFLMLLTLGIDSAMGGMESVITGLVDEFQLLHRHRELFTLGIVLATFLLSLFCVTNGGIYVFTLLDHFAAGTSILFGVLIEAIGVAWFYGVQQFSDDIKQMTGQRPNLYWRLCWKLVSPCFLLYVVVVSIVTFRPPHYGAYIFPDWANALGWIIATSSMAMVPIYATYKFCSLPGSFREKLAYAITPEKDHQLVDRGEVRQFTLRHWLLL

[3] = target: T2, Norepinephrine transporter (Rattus norvegicus, UniProt Q63380)
T2 construct: from tissue; host or cells: brain
T2 sequence (Q63380 1-617): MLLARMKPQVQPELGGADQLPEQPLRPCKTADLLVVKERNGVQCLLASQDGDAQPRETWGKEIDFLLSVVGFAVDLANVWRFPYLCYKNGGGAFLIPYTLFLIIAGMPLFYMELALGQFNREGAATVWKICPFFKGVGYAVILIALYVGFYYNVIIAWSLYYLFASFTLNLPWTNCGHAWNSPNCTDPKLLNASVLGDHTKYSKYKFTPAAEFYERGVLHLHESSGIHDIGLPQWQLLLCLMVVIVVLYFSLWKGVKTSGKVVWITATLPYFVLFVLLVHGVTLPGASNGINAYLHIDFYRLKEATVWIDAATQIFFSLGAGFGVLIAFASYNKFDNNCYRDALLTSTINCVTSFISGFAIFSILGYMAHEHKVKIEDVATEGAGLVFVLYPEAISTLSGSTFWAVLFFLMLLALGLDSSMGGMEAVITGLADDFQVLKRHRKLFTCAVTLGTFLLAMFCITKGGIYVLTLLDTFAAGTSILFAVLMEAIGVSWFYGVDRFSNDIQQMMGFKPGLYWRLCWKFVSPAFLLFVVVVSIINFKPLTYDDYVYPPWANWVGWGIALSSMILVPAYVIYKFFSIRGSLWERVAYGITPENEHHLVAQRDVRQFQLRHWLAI

[4] = tested on: nicotine-induced antinociception; assay: Blockade of nicotine-induced antinociception, tail-flick test; format: in vivo, mice; conditions: for AD50 Tail-Flick: blocking antinociception of nicotine 2.5 mg/kg, systemic administration; for AD50, nicotine-induced antinociception in tail-flick test: s.c. administration
Procedure: Anitinociception. The tail-flick method of D'Amour and Smith (1941) as modified by Dewey et al. (1970) was used. A control response (2-4 s) was determined for each animal before treatment, and a test latency was determined after drug administration. To minimize tissue damage, a maximum latency of 10 s was imposed. Antinociceptive response was calculated as percent maximum possible effect (% MPE), where % MPE=[((test-control)/(10-control))×100], Groups of 8 to 12 animals were used for each dose and for each treatment. Mice were tested 5 min after nicotine administration for the dose-response evaluation. Antagonism studies were carried out by pretreating the mice s.c. with either saline or various drugs at different times before nicotine. The animals were tested 5 min after administration of nicotine.
(§1) Data were analyzed statistically by an analysis of variance followed by the Fisher's P least-significant difference multiple comparison test. The null hypothesis was rejected at the […].

[5] = target: T3, Serotonin transporter (Rattus norvegicus, UniProt P31652)
T3 construct: from tissue; host or cells: brain
T3 sequence (P31652 whole entry): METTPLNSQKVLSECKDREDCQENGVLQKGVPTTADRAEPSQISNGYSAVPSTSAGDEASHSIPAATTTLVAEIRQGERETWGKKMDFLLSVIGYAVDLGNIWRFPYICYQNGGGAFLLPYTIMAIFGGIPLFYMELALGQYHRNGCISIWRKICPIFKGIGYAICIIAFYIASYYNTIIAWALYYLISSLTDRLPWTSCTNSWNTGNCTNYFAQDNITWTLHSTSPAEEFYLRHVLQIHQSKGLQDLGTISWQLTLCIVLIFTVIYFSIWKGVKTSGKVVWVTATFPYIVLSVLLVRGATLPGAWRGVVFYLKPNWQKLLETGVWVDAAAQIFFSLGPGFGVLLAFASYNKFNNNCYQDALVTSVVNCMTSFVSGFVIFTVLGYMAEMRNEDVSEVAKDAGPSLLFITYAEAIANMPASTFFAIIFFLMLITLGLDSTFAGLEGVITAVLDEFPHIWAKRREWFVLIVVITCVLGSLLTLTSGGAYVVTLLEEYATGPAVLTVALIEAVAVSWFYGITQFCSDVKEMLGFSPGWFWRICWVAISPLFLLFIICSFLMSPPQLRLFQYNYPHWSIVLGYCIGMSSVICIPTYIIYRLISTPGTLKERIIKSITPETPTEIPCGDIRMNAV

[6] = tested on: nicotine-induced hypothermia; assay: Blockade of nicotine-induced hypothermia (body temperature); format: in vivo, mice; conditions: for AD50 Hypothermia: blocking nicotine-induced hypothermia, systemic administration
Procedure: Body Temperature. Rectal temperature was measured by a thermistor probe (inserted 24 mm) and digital thermometer (Yellow Springs Instrument Co., Yellow Springs, Ohio). Readings were taken just before and at 30 min after the s.c. injection of nicotine. For antagonism studies, mice were pretreated with either saline or various drugs 10 min before nicotine. The difference in rectal temperature before and after treatment was calculated for each mouse. The ambient temperature of the laboratory varied from 21 to 24° C. from day to day.
as §1

[7] = tested on: nicotine-induced seizures; assay: Nicotine-induced seizure activity; format: in vivo, mice; conditions: saline pretreatment, nicotine 9 mg/kg challenge
Procedure: Seizure Activity. Following s.c. injection of nicotine at a dose of 9 mg/kg, each animal was placed in a 30 cm×30 cm Plexiglass cage and observed for 5 min. […] This amount of time was chosen because seizures occur very quickly after nicotine administration. Results are expressed as percentage seizure.

[8] = tested on: discriminative stimulus effect of nicotine; assay: Nicotine drug discrimination; format: in vivo; conditions: saline pretreatment, nicotine 0.4 mg/kg, rats
Procedure: Rats were individually housed in a temperature-controlled environment and were maintained on a diet (Agway Rodent Chow) that restricted their body weight to approximately 85% of their free feeding weight. Water was available ad libitum in the home cages. A two-lever operant drug nation paradigm (VI 15) was carried out in eight operant chambers (4 Lafayette model 80001 and 4 BRS/LVIE model s 002). Reinforcement was a Bioserv 45-mg precision dustless pellet. Data were collected automatically by two Commodore 64 microcomputers.
Rats were placed in an operant chamber 5 min after injections. […] Animals were required to meet a criterion of three successive days of 80% or greater correct-lever responding before testing was initiated. Injections were given 5 min before placing the animal in the operant chamber. The schedule of injections, was determined using a Latin Square design. Dose-response curves were determined for nicotine 5 min after s.c. injections.

[9] = read-out: Dopamine [3H]WIN 35,428 IC50; brain; cited from earlier work
[10] = read-out: Norepinephrine [3H]Nisoxetime IC50; brain; cited from earlier work
[11] = brain; read-out: Dopamine [3H]WIN 35,428 IC50; cited from earlier work
[12] = brain; read-out: Norepinephrine [3H]Nisoxetime IC50; cited from earlier work
[13] = brain; read-out: Serotonin [3H]Paroxetine IC50; cited from earlier work

| Structure (SMILES) | AD50 Tail-Flick ([4]; mice) | Blockade of nicotine-induced antinociception (in words) ([4]; tail-flick, mice) | pIC50 [2, 11] | pIC50 [3, 12] | pIC50 [5, 13] | other results |
| --- | --- | --- | --- | --- | --- | --- |
| CO[C@H]1CC=C2CCN3CCC4=C(CC(=O)OC4)[C@]23C1 [DHβE, Dihydro-β-erythroidine] |  |  |  |  |  | Effect of higher doses on mouse spontaneous activity [1]: significantly decreased mouse spontaneous activity |
| CN1C2CCC1C(C(=O)N1CCCC1)C(c1ccc(I)cc1)C2 (stereo not drawn) [RTI-229] | 3.6 μmol/hg |  |  |  |  | pIC50 [2, 9]: 9.43; pIC50 [3, 10]: 6.00; Relative potency in blocking nicotine's antinociceptive effect (in words, comparator in the value) ([4]; tail-flick, mice): about the same potency as cocaine; pIC50 ([5]; read-out: Serotonin [3H]Paroxetine IC50; brain; cited from earlier work): 5.75 |
| COC(=O)C(c1ccccc1)C1CCCCN1 (stereo not drawn) [Methylphenidate, reference compound] |  | failed to block |  |  |  | Tail-flick, % blockade @ dose ([4]; @ 74 μmol/hg, s.c.): 5% @ 74 |
| COC(=O)[C@H]1[C@@H](c2ccccc2)C[C@@H]2CC[C@H]1N2C [WIN 35,065-2, reference compound] | 8.0 μmol/hg |  | 7.64 | 6.04 |  | AD50 Hypothermia ([6]; mice): 6.7 μmol/hg; Blockade of nicotine-induced hypothermia (in words) ([6]; mice): significantly blocked; Times less potent than cocaine in blocking nicotine's antinociceptive effect ([4]; tail-flick, mice): 2.5 times |
| CN1Cc2c(N)cccc2C(c2ccccc2)C1 (stereo not drawn) [Nomifensine, reference compound] |  | dose-dependently blocked |  |  |  | AD50, nicotine-induced antinociception in tail-flick test ([4]; mice): 1.7 μmol/hg; Relative potency in blocking nicotine's antinociceptive effect (in words, comparator in the value) ([4]; tail-flick, mice): five times more potent than GBR 12909 |
| COC(=O)[C@H]1[C@@H](c2ccc(C)cc2)C[C@@H]2CC[C@H]1N2C [RTI-32] | 2.0 μmol/hg |  | 8.77 | 7.22 |  | AD50 Hypothermia ([6]; mice): 31.7 μmol/hg; Blockade of nicotine-induced hypothermia (in words) ([6]; mice): significantly blocked |
| CNCCC(Oc1ccccc1OC)c1ccccc1 (stereo not drawn) [Nisoxetine, reference compound] |  |  |  |  |  | AD50, nicotine-induced antinociception in tail-flick test ([4]; mice): 7.4 μmol/hg |
| CC(N)Cc1ccccc1 (stereo not drawn) [Amphetamine, reference compound] |  | blocked nicotine-induced antinociception |  |  |  | AD50, nicotine-induced antinociception in tail-flick test ([4]; mice): 36.9 μmol/hg |
| CN1CCCC1c1cccnc1 (single isomer, unassigned; (-)) [Nicotine, (−)-Nicotine, reference compound] |  |  |  |  |  | % Seizures (Mean) [7]: 100%; Drug discrimination % Test (Mean ± SE) [8]: 87 ± 8%; ED50 ([4]; Mus musculus, read-out: ED50 value of nicotine, antinociception): 1.5 mg/kg |
| COC(=O)[C@H]1[C@@H](c2ccc(Cl)c(Cl)c2)C[C@@H]2CC[C@H]1N2C [RTI-111] | 1.3 μmol/hg |  | 9.10 | 7.75 | 8.51 | Fold more potent than cocaine in blocking nicotine's antinociceptive effect ([4]; tail-flick, mice): ~2.5 fold |
| CN1C2CCC1C(C(=O)N1CCCC1)C(c1ccc(Cl)cc1)C2 (stereo not drawn) [RTI-147] | 5.7 μmol/hg |  |  |  | 4.91 | pIC50 [2, 9]: 8.86; pIC50 [3, 10]: 5.40; Relative potency in blocking nicotine's antinociceptive effect (in words, comparator in the value) ([4]; tail-flick, mice): about one-half as potent as cocaine |
| CNCCC(Oc1ccc(C(F)(F)F)cc1)c1ccccc1 (stereo not drawn) [Fluoxetine, reference compound] |  | failed to significantly block |  |  |  | Tail-flick, % blockade @ dose ([4]; @ 86.7 μmol/hg, s.c.): 15% @ 86.7 |
| Cc1ccc([C@H]2C[C@@H]3CC[C@H]([C@H]2C(=O)Oc2ccccc2)N3C)cc1 [RTI-120] | 4.0 μmol/hg |  | 8.49 | 5.23 | 4.61 | Relative potency in blocking nicotine's antinociceptive effect (in words, comparator in the value) ([4]; tail-flick, mice): only one-half as potent as RTI-32 |
| CCN(CC)CCOC(=O)c1ccc(N)cc1 [Procaine, reference compound] |  | failed to significantly block |  |  |  | Tail-flick, % blockade @ dose ([4]; @ 75 μmol/hg, s.c.): 5% @ 75 |
| COC(=O)[C@H]1[C@@H](c2ccc(Cl)c(C)c2)C[C@@H]2CC[C@H]1N2C [RTI-112] | 3.5 μmol/hg |  | 9.10 | 7.44 | 7.98 | AD50 Hypothermia ([6]; mice): 1.5 μmol/hg; Blockade of nicotine-induced hypothermia (in words) ([6]; mice): significantly blocked; Relative potency in blocking nicotine's antinociceptive effect (in words, comparator in the value) ([4]; tail-flick, mice): approximately the same activity as cocaine; also recorded: approximately twice as potent as WIN 35,065-2 |
| COC(=O)[C@H]1[C@@H](c2ccc(Br)cc2)C[C@H]2CC[C@@H]1N2C [RTI-51] | 1.0 μmol/hg |  | 8.77 |  | 7.97 |  |
| CCN(CC)CC(=O)Nc1c(C)cccc1C [Lidocaine, reference compound] |  | failed to significantly block |  |  |  | Tail-flick, % blockade @ dose ([4]; @ 75 μmol/hg, s.c.): 7% @ 75 |
| Cn1c(=O)c2c(ncn2C)n(C)c1=O [Caffeine, reference compound] |  | blocked nicotine-induced antinociception |  |  |  | AD50, nicotine-induced antinociception in tail-flick test ([4]; mice): 32.4 μmol/hg |
| CC(C)OC(=O)[C@@H]1C2CC[C@H](C[C@@H]1c1ccc(Cl)cc1)N2C [RTI-114] | 5.3 μmol/hg |  | 8.85 | 6.11 | 5.85 | AD50 Hypothermia ([6]; mice): 9 μmol/hg |
| CC(C)OC(=O)C1C(c2ccc(I)cc2)CC2CCC1N2C (stereo not drawn) [RTI-121] | 0.3 μmol/hg |  |  |  |  | pIC50 [2, 9]: 9.40; pIC50 [3, 10]: 6.55; AD50 Hypothermia ([6]; mice): 49 μmol/hg; Blockade of nicotine-induced hypothermia (in words) ([6]; mice): significantly blocked; Fold less potent in blocking nicotine hypothermia than antinociception ([6]; mice): > 100 fold; Fold more potent than cocaine in blocking nicotine's antinociceptive effect ([4]; tail-flick, mice): 10 fold |
| COC(=O)[C@H]1[C@@H](c2ccc(Cl)cc2)C[C@@H]2CC[C@H]1N2 [RTI-110] | 1.0 μmol/hg |  | 9.21 | 8.26 | 8.39 | Fold more potent than cocaine in blocking nicotine's antinociceptive effect ([4]; tail-flick, mice): 3 fold |
| COC(=O)[C@H]1[C@@H](OC(=O)c2ccccc2)C[C@@H]2CC[C@H]1[N+]2(C)C.[I-] [cocaine methiodide, reference compound] |  | failed to significantly block |  |  |  | Blockade of nicotine-induced antinociception (in words) ([4]; tail-flick, mice, listed as cocaine-methiodide): Lack of blockade |
| CN1[C@H]2CC[C@@H]1[C@@H](C(=O)O)[C@@H](c1ccc(Cl)cc1)C2 [RTI-70] |  |  | 5.68 | < 3.70 | 4.23 | Hypothermia, % blockade @ dose ([6]; @ 90 μmol/hg): 40% @ 90; Tail-flick, % blockade @ dose ([4]; @ 90 μmol/hg): 0% @ 90; Relative potency in blocking nicotine's antinociceptive effect (in words, comparator in the value) ([4]; tail-flick, mice): much less potent than cocaine |
| CNC1(C)C2CCC(C2)C1(C)C (stereo not drawn) [mecamylamine] |  |  |  |  |  | Effect of higher doses on mouse spontaneous activity [1]: significantly decreased mouse spontaneous activity |
| CC(NC(C)(C)C)C(=O)c1cccc(Cl)c1 (stereo not drawn) [Bupropion, reference compound] |  | dose-dependently blocked |  |  |  | AD50, nicotine-induced antinociception in tail-flick test ([4]; mice): 8 μmol/hg; Relative potency in blocking nicotine's antinociceptive effect (in words, comparator in the value) ([4]; tail-flick, mice): as potent as GBR 12909 |
| COC(=O)[C@H]1[C@@H](c2ccc(Cl)cc2)C[C@H]2CC[C@H]1N2C [RTI-31] | 7.2 μmol/hg |  |  |  | 7.35 | AD50 Hypothermia ([6]; mice): 1.1 μmol/hg; AD50, blockade of nicotine-induced hypothermia ([6]; mice): 1.1 µmol/kg; Blockade of nicotine-induced hypothermia (in words) ([6]; mice): significantly blocked |
| CN1[C@H]2CC[C@@H]1[C@@H](C(=O)Oc1ccccc1)[C@@H](c1ccc(Cl)cc1)C2 [RTI-113] | 5.6 μmol/hg |  | 8.70 | 5.53 | 5.63 |  |
| Fc1ccc(C(OCCN2CCN(CCCc3ccccc3)CC2)c2ccc(F)cc2)cc1 [GBR 12909, reference compound] |  |  |  |  |  | AD50, nicotine-induced antinociception in tail-flick test ([4]; mice): 8.4 μmol/hg |
| COC(=O)[C@H]1C(c2ccc(I)cc2)C[C@@H]2CC[C@H]1N2C (stereo partly drawn) [RTI-55] | 0.9 μmol/hg |  | 8.90 | 7.20 | 8.38 | AD50 Hypothermia ([6]; mice): 1.2 μmol/hg; Blockade of nicotine-induced hypothermia (in words) ([6]; mice): significantly blocked |
| COC(=O)C1C2CC[C@H](C[C@@H]1c1ccc(N)cc1)N2C (stereo partly drawn) [RTI-29] | 6.8 μmol/hg |  | 8.01 | 6.82 | 5.29 | Relative potency in blocking nicotine's antinociceptive effect (in words, comparator in the value) ([4]; tail-flick, mice): one-half as potent as cocaine; also recorded: approximately the same activity as WIN 35,065-2 |
